{"source": "paper PMC5905968", "about": "“Evaluation of the fusion inhibitor P3 peptide as a potential microbicide to prevent HIV transmission in women” (PLoS ONE, 2018)", "tested_on": "vaginal epithelium of BALB/c mice", "assay": "BALB/c mice vaginal irritation test with histological score", "type": "in vivo", "design": "key to Epithelial lesion / Inflammatory infiltrate / Vascular congestion / Edema/fibrosis / Total Score: 0 (no change) when no injury or the observed changes were within normal range; 1 (minimum) when changes were sparse but exceeded those considered normal; 2 (light) when injuries were identifiable but with no severity; 3 (moderate) for significant injury that could increase in severity; 4 (very serious) for very serious injuries that occupy most of the analyzed tissue", "conditions": "for Edema/fibrosis / Epithelial lesion / Inflammatory infiltrate / Vascular congestion / Total Score: 7 days; for Total Score: sum of the four lesion scores", "description": "Female BALB/c mice (6–8 weeks-old) (Charles River Laboratories, Wilmington, MA) were pretreated subcutaneously with 2mg of medroxyprogesterone acetate (Depo-Provera; Pfizer, NY, USA) in PBS (Lonza, Verviers, Belgium). After five days, 30μl of test formulation with different doses of P3 diluted in PBS was applied intravaginally daily for 7 days by vaginal gavage to animals previously anesthetized with isoflurane (Forane, Abbott, Madrid). Controls included mice that received PBS (placebo group) and 3% nonoxynol-9 (N9) in PBS (irritation control group). On the eighth day, mice were sacrificed and genital tract tissue were extracted and fixed in 4% paraformaldehyde for histological analysis. The animals were distributed in groups of three mice each: group placebo only treated with PBS (1–3), group A treated with dose of 0.06mg/day ([…]) of P3 in PBS (4–6), group B treated with dose of 0.2mg/day (1522.7 μM) of P3 in PBS (7–9), group C treated with dose of 0.4mg/day (3045.3 μM) of P3 in PBS (10–12) and group irritation control treated with 3% N9 in PBS (13–15).\nThe presence of histological lesions in the mouse vaginas was evaluated with hematoxylin-eosin staining. Samples were embedded in paraffin by submersion in increasing concentrations of ethanol in water (Rectapur, VWR, England), two baths of xylene (Analar (VWR, England) and another of paraffin, before being placed in a paraffin mold. Subsequently, they were cut using a semimotorized microtome (RM2145 Leica, Germany) and processed for staining. For dewaxing, samples were submersed into two baths of xylene solution (10 min) and three baths in descending order of ethanol (100%, 90% and 70%) (5 min), before being stained with hematoxylin (Merck, Germany) for 5 min and eosin (Merck, Germany) for another 5 min. Post-eosin staining dehydration was performed with passages in increasing concentrations of ethanol (70%, 90% and 100%) and a bath of xylene solution. Finally, they were mounted with D.P.X. (Prolabo, VWR, Spain).\nThe existence of injury in vaginal epithelium, inflammatory infiltrate, vascular congestion and/or edema in the submucosa was evaluated in each biological sample. The values (score) assigned for each of these lesions were: 0 (no change) when no injury or the observed changes were within normal range; 1 (minimum) when changes were sparse but exceeded those considered normal; 2 (light) when injuries were identifiable but with no severity; 3 (moderate) for significant injury that could increase in severity; 4 (very serious) for very serious injuries that occupy most of the analyzed tissue. These values were added up and determined the level of vaginal irritation as minimum 1–4, average 5–8, moderate 9–11 and severe 12–16 [34].", "key": {"[1]": {"conditions": "456 μM/day P3 in PBS intravaginally, mouse 4"}, "[2]": {"conditions": "456 μM/day P3 in PBS intravaginally, mouse 5"}, "[3]": {"conditions": "456 μM/day P3 in PBS intravaginally, mouse 6"}, "[4]": {"conditions": "1522.7 μM/day P3 in PBS intravaginally, mouse 7"}, "[5]": {"conditions": "1522.7 μM/day P3 in PBS intravaginally, mouse 8"}, "[6]": {"conditions": "1522.7 μM/day P3 in PBS intravaginally, mouse 9"}, "[7]": {"conditions": "3045.3 μM/day P3 in PBS intravaginally, mouse 10"}, "[8]": {"conditions": "3045.3 μM/day P3 in PBS intravaginally, mouse 11"}, "[9]": {"conditions": "3045.3 μM/day P3 in PBS intravaginally, mouse 12"}}, "data": [{"smiles": "CC[C@H](C)[C@H](NC(=O)[C@H](CC(N)=O)NC(=O)[C@H](C)NC(=O)[C@H](CCC(=O)O)NC(=O)[C@H](CC(C)C)NC(=O)[C@H](Cc1ccc(O)cc1)NC(=O)[C@H](CCCNC(=N)N)NC(=O)[C@@H](NC(=O)[C@H](CCC(N)=O)NC(=O)[C@H](CCC(N)=O)NC(=O)[C@H](CCC(=O)O)NC(=O)[C@H](Cc1c[nH]c2ccccc12)NC(=O)[C@H](CCC(=O)O)NC(=O)[C@H](CCC(N)=O)NC(=O)[C@H](Cc1c[nH]c2ccccc12)NC(C)=O)C(C)C)C(=O)N[C@@H](CO)C(=O)N[C@@H](CCC(N)=O)C(=O)N[C@@H](CCCNC(=N)N)C(=O)N[C@@H](CC(C)C)C(=O)N[C@@H](CCC(=O)O)C(=O)N[C@@H](CCC(N)=O)C(=O)N[C@@H](C)C(=O)N[C@@H](CCC(N)=O)C(=O)N[C@H](C(=O)N[C@@H](CCC(N)=O)C(=O)N[C@@H](CCC(N)=O)C(=O)N[C@@H](CCC(=O)O)C(=O)N[C@@H](CCCCN)C(=O)N[C@@H](CC(N)=O)C(=O)N[C@@H](CCSC)C(=O)N[C@@H](Cc1ccc(O)cc1)C(=O)N[C@@H](CCC(=O)O)C(=O)N[C@@H](CC(C)C)C(=O)N[C@@H](CCC(N)=O)C(N)=O)[C@@H](C)CC", "note": "[P3]", "values": [{"measurement": "Edema/fibrosis", "setting": "[1]", "result": 0}, {"measurement": "Epithelial lesion", "setting": "[1]", "result": 1}, {"measurement": "Inflammatory infiltrate", "setting": "[1]", "result": 0}, {"measurement": "Vascular congestion", "setting": "[1]", "result": 1}, {"measurement": "Total Score", "setting": "[1]", "result": 2}, {"measurement": "Edema/fibrosis", "setting": "[2]", "result": 1}, {"measurement": "Epithelial lesion", "setting": "[2]", "result": 1}, {"measurement": "Inflammatory infiltrate", "setting": "[2]", "result": 1}, {"measurement": "Vascular congestion", "setting": "[2]", "result": 0}, {"measurement": "Total Score", "setting": "[2]", "result": 3}, {"measurement": "Edema/fibrosis", "setting": "[3]", "result": 0}, {"measurement": "Epithelial lesion", "setting": "[3]", "result": 0}, {"measurement": "Inflammatory infiltrate", "setting": "[3]", "result": 0}, {"measurement": "Vascular congestion", "setting": "[3]", "result": 0}, {"measurement": "Total Score", "setting": "[3]", "result": 0}, {"measurement": "Edema/fibrosis", "setting": "[4]", "result": 0}, {"measurement": "Epithelial lesion", "setting": "[4]", "result": 1}, {"measurement": "Inflammatory infiltrate", "setting": "[4]", "result": 1}, {"measurement": "Vascular congestion", "setting": "[4]", "result": 1}, {"measurement": "Total Score", "setting": "[4]", "result": 3}, {"measurement": "Edema/fibrosis", "setting": "[5]", "result": 0}, {"measurement": "Epithelial lesion", "setting": "[5]", "result": 0}, {"measurement": "Inflammatory infiltrate", "setting": "[5]", "result": 0}, {"measurement": "Vascular congestion", "setting": "[5]", "result": 1}, {"measurement": "Total Score", "setting": "[5]", "result": 1}, {"measurement": "Edema/fibrosis", "setting": "[6]", "result": 0}, {"measurement": "Epithelial lesion", "setting": "[6]", "result": 0}, {"measurement": "Inflammatory infiltrate", "setting": "[6]", "result": 2}, {"measurement": "Vascular congestion", "setting": "[6]", "result": 2}, {"measurement": "Total Score", "setting": "[6]", "result": 4}, {"measurement": "Edema/fibrosis", "setting": "[7]", "result": 0}, {"measurement": "Epithelial lesion", "setting": "[7]", "result": 4}, {"measurement": "Inflammatory infiltrate", "setting": "[7]", "result": 3}, {"measurement": "Vascular congestion", "setting": "[7]", "result": 3}, {"measurement": "Edema/fibrosis", "setting": "[8]", "result": 0}, {"measurement": "Epithelial lesion", "setting": "[8]", "result": 2}, {"measurement": "Inflammatory infiltrate", "setting": "[8]", "result": 0}, {"measurement": "Vascular congestion", "setting": "[8]", "result": 1}, {"measurement": "Total Score", "setting": "[8]", "result": 3}, {"measurement": "Edema/fibrosis", "setting": "[9]", "result": 1}, {"measurement": "Epithelial lesion", "setting": "[9]", "result": 4}, {"measurement": "Inflammatory infiltrate", "setting": "[9]", "result": 2}, {"measurement": "Vascular congestion", "setting": "[9]", "result": 2}, {"measurement": "injuries (histology)", "setting": "group A, 0.06 mg/day (456.8 μM) P3, 7 days", "result": "minimal or even absent"}, {"measurement": "level of irritation of the vaginal wall", "setting": "group B, 0.2 mg/day (1522.7 μM) P3, 7 days", "result": "minimal"}, {"measurement": "score of vaginal irritation", "setting": "group C, 0.4 mg/day (3045.3 μM) P3, 7 days, mice 10 and 12", "result": "moderate (moderate 9–11)"}, {"measurement": "irritation of the vaginal epithelium", "setting": "group C, 0.4 mg/day (3045.3 μM) P3, 7 days, the other mouse (sample 11)", "result": "minimal"}]}]}
